One assay has as its target T1, CBP (Homo sapiens, UniProt Q92793).
T1 construct: Cells growing in culture were lysed for whole cell lysates; endogenous in cells; host or cells: Kelly, NGP, SIMA, BE2C neuroblastoma cells; Kelly xenografts in NSG mice
The assay can be described thus: SILAC mass spectrometry of the nuclear proteome of Kelly cells (CBP). It counts as cell-based. To be noted: 500 nM, 24 h, nuclear extract. The protocol:
Because JQAD1 interacted preferentially with both EP300 and CRBN, whether JQAD1 preferentially induces degradation of EP300 compared to CBP in MYCN-amplified neuroblastoma cells was examined. […] To further examine the specificity of JQAD1 for EP300, an analysis of the effects of JQAD1 in stable isotope labeling by amino acids in cell culture (SILAC)-labelled Kelly cells was performed (FIG. 3F). Kelly cells were cultured with SILAC media containing heavy or light-labelled arginine and lysine. Heavy labelled cells were treated with 500 nM JQAD1, and light-labelled cells treated with dimethyl sulfoxide (DMSO) for 24 h, prior to nuclear extraction and protein lysis. […] Protein abundance was then analyzed by mass spectrometry, to determine global changes in the nuclear proteome. […] To expand upon these findings, three NB cell lines, Kelly, NGP and SIMA, which have high levels of CRBN (e.g., protein or mRNA) (FIG. 8C), were treated with JQAD, and the effects on specific proteins were measured by western blotting. […] Peptides were detected, isolated, and fragmented to produce a tandem mass spectrum of specific fragment ions for each peptide. Peptide sequences and protein identity were determined by matching protein databases with the acquired fragmentation pattern by Sequest® (Thermo Fisher Scientific) (Eng et al. J. Am. Soc. Mass Spectrom. 5:976-89 (1994)). […]

Another assay addresses His-tagged CRBN (Homo sapiens, UniProt Q96SW2). The assay can be described thus: AlphaLISA assay with biotinylated pomalidomide and His-tagged CRBN. The class given is binding. To be noted: competition with biotinylated pomalidomide. The method, then: To determine whether JQAD1 interacts with the E3 ligase receptor CRBN, the AlphaLISA® platform was used to perform AlphaLISA® fluorescent assays using biotinylated pomalidomide bound to beads and His-tagged CRBN (Yasgar et al. Methods Mol. Biol. 1439:77-98 (2016)). […] Next, biotinylated JQAD1 (Biotin-JQAD1, Scheme 2) was synthesized and incubated with Kelly cell lysates, followed by streptavidin-based purification. […] PROTAC®s may acquire preferential specificity for one of two possible target enzymes due to restricted three-dimensional interactions, as noted in Burslem and Crews, Cell 181:102-14 (2020).
Assays were performed with minimal modifications from the manufacturer's protocol (PerkinElmer®, USA). Briefly, a 2× solution of components with final concentrations of CRBN-DDB1 at 50 nM, Ni-coated Acceptor Beads at 20 μg/ml, and 15 nM biotinylated-pomalidomide were added in […] to 384-well plates (AlphaPlate-384, PerkinElmer®, USA). 100 nL of compound in DMSO from stock plates were added by pin transfer using a Janus Workstation (PerkinElmer®, USA). Streptavidin-coated donor beads (20 μg/ml final) were added to the solution, followed by incubation at room temperature for 1 hour, and reading on an Envision 2104 (PerkinElmer®, USA), by the manufacturer's protocol.
Background: Bead proximity is the source of the signal in Alpha formats.

SMILES strings stand for the structures.

T1 sequence (Q92793 whole entry): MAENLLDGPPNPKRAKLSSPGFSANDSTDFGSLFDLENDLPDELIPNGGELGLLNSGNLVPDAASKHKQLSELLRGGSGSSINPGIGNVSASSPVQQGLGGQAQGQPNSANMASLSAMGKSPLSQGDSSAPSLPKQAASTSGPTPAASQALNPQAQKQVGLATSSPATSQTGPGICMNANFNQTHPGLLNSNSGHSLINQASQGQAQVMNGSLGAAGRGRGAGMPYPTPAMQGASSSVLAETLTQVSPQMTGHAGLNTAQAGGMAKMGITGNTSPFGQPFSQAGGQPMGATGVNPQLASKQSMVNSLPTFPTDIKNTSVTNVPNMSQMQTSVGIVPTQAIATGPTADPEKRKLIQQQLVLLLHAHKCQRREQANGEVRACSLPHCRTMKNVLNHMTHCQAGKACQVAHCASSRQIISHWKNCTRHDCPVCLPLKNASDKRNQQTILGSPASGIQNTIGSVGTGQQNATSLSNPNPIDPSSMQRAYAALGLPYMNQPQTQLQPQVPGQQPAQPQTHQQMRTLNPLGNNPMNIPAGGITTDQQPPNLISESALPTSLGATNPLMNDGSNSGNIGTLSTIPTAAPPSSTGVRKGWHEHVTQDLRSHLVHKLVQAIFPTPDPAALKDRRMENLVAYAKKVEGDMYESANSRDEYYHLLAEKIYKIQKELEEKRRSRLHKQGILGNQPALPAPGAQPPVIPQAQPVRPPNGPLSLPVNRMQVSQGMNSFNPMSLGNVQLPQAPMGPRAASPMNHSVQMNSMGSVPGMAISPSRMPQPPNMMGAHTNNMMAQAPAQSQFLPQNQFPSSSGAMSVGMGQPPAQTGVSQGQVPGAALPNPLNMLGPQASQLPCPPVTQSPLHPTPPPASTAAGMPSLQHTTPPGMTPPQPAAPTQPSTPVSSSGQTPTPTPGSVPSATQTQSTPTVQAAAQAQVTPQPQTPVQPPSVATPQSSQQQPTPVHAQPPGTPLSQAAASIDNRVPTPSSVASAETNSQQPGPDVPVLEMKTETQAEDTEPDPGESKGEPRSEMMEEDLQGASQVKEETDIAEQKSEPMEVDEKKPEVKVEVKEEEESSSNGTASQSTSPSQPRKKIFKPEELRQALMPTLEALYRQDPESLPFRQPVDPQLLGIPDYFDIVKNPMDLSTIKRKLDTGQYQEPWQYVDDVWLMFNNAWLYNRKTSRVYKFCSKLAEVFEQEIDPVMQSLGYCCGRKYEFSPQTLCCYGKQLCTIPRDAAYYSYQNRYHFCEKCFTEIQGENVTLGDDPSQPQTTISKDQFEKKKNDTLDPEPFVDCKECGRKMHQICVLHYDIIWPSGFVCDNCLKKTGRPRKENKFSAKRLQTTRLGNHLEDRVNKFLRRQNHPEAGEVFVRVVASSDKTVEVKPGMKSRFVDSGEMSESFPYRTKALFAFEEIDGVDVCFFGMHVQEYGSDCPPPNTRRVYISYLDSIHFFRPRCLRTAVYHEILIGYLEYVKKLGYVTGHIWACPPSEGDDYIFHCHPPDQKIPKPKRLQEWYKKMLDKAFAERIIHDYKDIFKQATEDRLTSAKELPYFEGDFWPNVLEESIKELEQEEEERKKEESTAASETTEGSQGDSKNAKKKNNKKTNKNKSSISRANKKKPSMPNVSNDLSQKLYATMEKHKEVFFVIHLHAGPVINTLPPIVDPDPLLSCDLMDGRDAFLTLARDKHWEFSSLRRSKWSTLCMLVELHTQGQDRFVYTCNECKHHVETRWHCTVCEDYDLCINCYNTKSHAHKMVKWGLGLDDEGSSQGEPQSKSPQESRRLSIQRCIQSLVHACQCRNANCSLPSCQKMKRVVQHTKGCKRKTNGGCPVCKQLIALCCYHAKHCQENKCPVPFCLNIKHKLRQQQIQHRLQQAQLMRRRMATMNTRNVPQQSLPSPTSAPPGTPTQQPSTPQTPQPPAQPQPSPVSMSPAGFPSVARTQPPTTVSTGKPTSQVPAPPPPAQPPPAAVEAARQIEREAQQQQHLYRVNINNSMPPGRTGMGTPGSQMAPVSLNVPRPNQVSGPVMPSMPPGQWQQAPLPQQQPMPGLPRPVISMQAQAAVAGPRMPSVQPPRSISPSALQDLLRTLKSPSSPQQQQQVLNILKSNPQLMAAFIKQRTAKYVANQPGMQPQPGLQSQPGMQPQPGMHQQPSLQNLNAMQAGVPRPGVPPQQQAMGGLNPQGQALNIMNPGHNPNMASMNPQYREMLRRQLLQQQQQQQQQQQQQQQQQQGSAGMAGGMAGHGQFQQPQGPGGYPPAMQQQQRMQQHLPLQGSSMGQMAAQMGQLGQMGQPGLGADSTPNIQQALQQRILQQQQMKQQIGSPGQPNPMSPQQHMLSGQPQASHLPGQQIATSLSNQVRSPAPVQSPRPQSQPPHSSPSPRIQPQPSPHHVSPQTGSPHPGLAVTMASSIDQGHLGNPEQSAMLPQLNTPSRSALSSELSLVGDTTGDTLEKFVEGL
Sequence of His-tagged CRBN (Q96SW2 whole entry): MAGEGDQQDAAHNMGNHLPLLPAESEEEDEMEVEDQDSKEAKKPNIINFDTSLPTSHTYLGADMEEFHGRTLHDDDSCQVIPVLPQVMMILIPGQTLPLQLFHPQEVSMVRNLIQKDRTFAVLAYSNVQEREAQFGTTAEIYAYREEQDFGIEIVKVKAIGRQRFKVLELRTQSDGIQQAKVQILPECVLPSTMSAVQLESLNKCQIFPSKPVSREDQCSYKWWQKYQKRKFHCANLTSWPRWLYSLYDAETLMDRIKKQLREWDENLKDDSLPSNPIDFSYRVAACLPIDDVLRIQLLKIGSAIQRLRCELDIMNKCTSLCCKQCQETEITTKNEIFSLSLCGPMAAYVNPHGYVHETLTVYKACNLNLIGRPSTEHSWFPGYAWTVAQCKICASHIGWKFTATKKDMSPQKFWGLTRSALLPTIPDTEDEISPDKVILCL
Sequence of His-tagged CRBN (Q16531 whole entry partner): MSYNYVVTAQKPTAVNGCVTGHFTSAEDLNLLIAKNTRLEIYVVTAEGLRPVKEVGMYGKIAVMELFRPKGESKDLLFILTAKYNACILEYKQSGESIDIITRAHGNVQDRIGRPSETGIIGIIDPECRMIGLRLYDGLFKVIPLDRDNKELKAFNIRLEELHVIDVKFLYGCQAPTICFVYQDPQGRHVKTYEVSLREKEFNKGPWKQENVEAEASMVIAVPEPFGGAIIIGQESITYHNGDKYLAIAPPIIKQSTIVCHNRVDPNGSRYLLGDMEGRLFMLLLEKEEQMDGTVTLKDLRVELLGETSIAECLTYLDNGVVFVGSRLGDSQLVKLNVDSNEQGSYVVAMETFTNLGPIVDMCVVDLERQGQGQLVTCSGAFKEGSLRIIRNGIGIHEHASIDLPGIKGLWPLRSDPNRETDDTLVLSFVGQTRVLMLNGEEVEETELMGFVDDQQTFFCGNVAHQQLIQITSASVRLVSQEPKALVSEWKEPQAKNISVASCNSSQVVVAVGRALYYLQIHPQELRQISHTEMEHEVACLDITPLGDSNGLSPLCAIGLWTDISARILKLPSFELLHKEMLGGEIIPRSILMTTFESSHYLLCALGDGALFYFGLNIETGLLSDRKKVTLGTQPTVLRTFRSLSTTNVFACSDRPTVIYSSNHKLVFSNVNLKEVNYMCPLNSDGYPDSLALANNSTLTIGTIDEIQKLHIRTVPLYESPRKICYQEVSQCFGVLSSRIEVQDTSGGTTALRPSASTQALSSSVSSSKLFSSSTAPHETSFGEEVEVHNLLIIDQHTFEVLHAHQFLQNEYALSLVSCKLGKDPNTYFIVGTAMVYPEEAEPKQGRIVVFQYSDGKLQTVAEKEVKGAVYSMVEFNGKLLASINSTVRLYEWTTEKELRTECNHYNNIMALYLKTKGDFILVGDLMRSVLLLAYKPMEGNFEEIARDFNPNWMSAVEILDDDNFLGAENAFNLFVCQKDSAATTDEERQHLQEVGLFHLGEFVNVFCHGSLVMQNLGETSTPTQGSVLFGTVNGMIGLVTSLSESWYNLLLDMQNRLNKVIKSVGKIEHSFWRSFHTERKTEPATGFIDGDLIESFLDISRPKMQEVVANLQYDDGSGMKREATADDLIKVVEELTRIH

As for `C[C@H](N(Cc1ccc(F)cc1)C(=O)CN1C(=O)O[C@@]2(CCc3cc(NC(=O)CCCCCCCCCCCNc4ccc5c(c4)C(=O)N(C4CCC(=O)NC4=O)C5=O)ccc32)C1=O)C(F)(F)F` (stereo partly drawn) [JQAD1, 12-((2-(2,6-dioxopiperidin-3-yl)-1,3-dioxoisoindolin-5-yl)amino)-N-((R)-3′-(2-((4-fluorobenzyl)((S)-1,1,1-trifluoropropan-2-yl)amino)-2-oxoethyl)-2′,4′-dioxo-2,3-dihydrospiro[indene-1,5′-oxazolidin]-5-yl)dodecanamide], the CBP protein abundance result at CBP is on record as “remained detectable at similar levels as controls”. The “interaction with CRBN” value at His-tagged CRBN is “efficiently interacted with CRBN”.

The values above are taken from patent publication US20240156800A1, “EP300 DEGRADER AND USES THEREOF IN NEUROBLASTOMA” (DANA-FARBER CANCER INSTITUTE, INC., priority 2021, published 2024).
